What was measured:
Experiment in all cases: cells
Parameters in all cases: species or system panel of human cancer cell lines; Eurofins OncoPanel proliferation; nuclei count by high-content fluorescence imaging, 10-point dose response
[1] = system: SKO-007; conditions: SKO-007, 72 h, cell count, 3 days
Summary of the method: (§1)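 Cells in RPMI 1640/10% FBS or special medium received compound the day after seeding, with a time-zero plate; 3-day incubation at 37°C, 5% CO2. Nuclei imaged by fluorescence microscopy; 10 half-log doses from 100 μM, 0.1% DMSO. EC50, IC50, GI50 and activity area (0–10) from curve fits.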

[2] = system: FaDu; conditions: Homo sapiens, FaDu, 72 h, cell count, 3 days
Summary of the method: as §1

[3] = system: Jiyoye; conditions: Homo sapiens, JIYOYE, 72 h, cell count, 3 days
Summary of the method: as §1

[4] = system: Hs 445; conditions: Hs 445, 72 h, cell count, 3 days
Summary of the method: as §1

[5] = system: DLD-1; conditions: Homo sapiens, DLD-1, 72 h, cell count, 3 days
Summary of the method: as §1

[6] = system: MCF7; conditions: Homo sapiens, MCF7, 72 h, cell count, 3 days
Summary of the method: as §1

[7] = system: MX-1; conditions: Homo sapiens, MX1, 72 h, cell count, 3 days
Summary of the method: as §1

[8] = system: MES-SA; conditions: Homo sapiens, MES-SA, 72 h, cell count, 3 days
Summary of the method: as §1

[9] = system: PFSK-1; conditions: Homo sapiens, PFSK-1, 72 h, cell count, 3 days
Summary of the method: as §1

[10] = system: Capan-2; conditions: Homo sapiens, Capan-2, 72 h, cell count, 3 days
Summary of the method: as §1

[11] = system: HT-1080; conditions: Homo sapiens, HT-1080, 72 h, cell count, 3 days
Summary of the method: as §1

[12] = system: CCRFCEM; conditions: Homo sapiens, CCRF-CEM, 72 h, cell count, 3 days
Summary of the method: as §1

[13] = system: J-RT3-T3-5; conditions: Homo sapiens, J-RT3-T3-5, 72 h, cell count, 3 days
Summary of the method: as §1

[14] = system: NCI-H292; conditions: Homo sapiens, NCI-H292, 72 h, cell count, 3 days
Summary of the method: as §1

[15] = 50% of maximum possible response

C[C@@H]1CC(=O)NN=C1c1ccc(NN=C(C#N)C#N)cc1 [levosimendan] showed an IC50 [1, 15] of 42 µM, a GI50 ([1]; corrected for time zero) of 22.3 µM and an EC50 ([1]; curve inflection point) of 42 µM. For the same molecule, the IC50 [2, 15] was 63.1 µM, the GI50 ([2]; corrected for time zero) was 56.4 µM and the EC50 ([2]; curve inflection point) was 63.1 µM. It also gave an IC50 [3, 15] of 62.5 µM, a GI50 ([3]; corrected for time zero) of 54.6 µM and an EC50 ([3]; curve inflection point) of 62.5 µM. It also gave an IC50 [4, 15] of 30.6 µM, a GI50 ([4]; corrected for time zero) of 21.8 µM and an EC50 ([4]; curve inflection point) of 26.3 µM. It also gave an IC50 [5, 15] of 25.1 µM, a GI50 ([5]; corrected for time zero) of 23.7 µM and an EC50 ([5]; curve inflection point) of 23.9 µM. It also gave an IC50 [6, 15] of 32.4 µM, a GI50 ([6]; corrected for time zero) of 19 µM and an EC50 ([6]; curve inflection point) of 16.1 µM. It also gave an IC50 [7, 15] of 40.4 µM, a GI50 ([7]; corrected for time zero) of 37 µM and an EC50 ([7]; curve inflection point) of 40.4 µM. The IC50 [8, 15] was 15.6 µM, the GI50 ([8]; corrected for time zero) was 13.7 µM and the EC50 ([8]; curve inflection point) was 15.6 µM. The IC50 [9, 15] was 19.6 µM, the GI50 ([9]; corrected for time zero) was 13.9 µM and the EC50 ([9]; curve inflection point) was 19.6 µM. It also gave an IC50 [10, 15] of 49.7 µM, a GI50 ([10]; corrected for time zero) of 42.3 µM and an EC50 ([10]; curve inflection point) of 49.7 µM. It also gave an IC50 [11, 15] of 11.7 µM, a GI50 ([11]; corrected for time zero) of 10.9 µM and an EC50 ([11]; curve inflection point) of 11.7 µM. For the same molecule, the IC50 [12, 15] was 35.5 µM, the GI50 ([12]; corrected for time zero) was 28.5 µM and the EC50 ([12]; curve inflection point) was 35.5 µM. It also gave an IC50 [13, 15] of 24.4 µM, a GI50 ([13]; corrected for time zero) of 18.4 µM and an EC50 ([13]; curve inflection point) of 24.4 µM. It also gave an IC50 [14, 15] of 40.3 µM, a GI50 ([14]; corrected for time zero) of 34.4 µM and an EC50 ([14]; curve inflection point) of 40.3 µM.

From PMC6576746, “Rational discovery of dual-indication multi-target PDE/Kinase inhibitor for precision anti-cancer therapy using structural systems pharmacology” (PLoS Computational Biology, 2019)
